The target of this test is T1, Recombinant human JARID1B/KDM5B (Homo sapiens, UniProt Q9UGL1).
T1 construct: purchased Active Motif 31432; host or cells: Sf9 insect cells
Briefly: LANCE Ultra TR-FRET demethylase assay with FLAG-tagged JARID1B. The test is classed as biochemical. The conditions noted are these: 100 nM compound; 500 nM biotinylated H3K4me3 peptide substrate. Summed up:
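Sf9-expressed N-FLAG full-length JARID1B (10–30 nM) preincubated 5 min with compound at 20, 1 or 0.1 uM (1% DMSO), then 500 nM biotin-H3K4me3 peptide, 500 uM 2-OG, 25 uM Fe(II), 2 mM ascorbate added; 30 min at room temperature in Hepes pH 7.5. H3K4me2/1 product read by TR-FRET 665/590 ratio.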
For orientation: Time-resolved FRET reads energy transfer from a long-lived donor to a nearby acceptor.

SMILES strings stand for the structures.

T1 sequence (Q9UGL1 whole entry): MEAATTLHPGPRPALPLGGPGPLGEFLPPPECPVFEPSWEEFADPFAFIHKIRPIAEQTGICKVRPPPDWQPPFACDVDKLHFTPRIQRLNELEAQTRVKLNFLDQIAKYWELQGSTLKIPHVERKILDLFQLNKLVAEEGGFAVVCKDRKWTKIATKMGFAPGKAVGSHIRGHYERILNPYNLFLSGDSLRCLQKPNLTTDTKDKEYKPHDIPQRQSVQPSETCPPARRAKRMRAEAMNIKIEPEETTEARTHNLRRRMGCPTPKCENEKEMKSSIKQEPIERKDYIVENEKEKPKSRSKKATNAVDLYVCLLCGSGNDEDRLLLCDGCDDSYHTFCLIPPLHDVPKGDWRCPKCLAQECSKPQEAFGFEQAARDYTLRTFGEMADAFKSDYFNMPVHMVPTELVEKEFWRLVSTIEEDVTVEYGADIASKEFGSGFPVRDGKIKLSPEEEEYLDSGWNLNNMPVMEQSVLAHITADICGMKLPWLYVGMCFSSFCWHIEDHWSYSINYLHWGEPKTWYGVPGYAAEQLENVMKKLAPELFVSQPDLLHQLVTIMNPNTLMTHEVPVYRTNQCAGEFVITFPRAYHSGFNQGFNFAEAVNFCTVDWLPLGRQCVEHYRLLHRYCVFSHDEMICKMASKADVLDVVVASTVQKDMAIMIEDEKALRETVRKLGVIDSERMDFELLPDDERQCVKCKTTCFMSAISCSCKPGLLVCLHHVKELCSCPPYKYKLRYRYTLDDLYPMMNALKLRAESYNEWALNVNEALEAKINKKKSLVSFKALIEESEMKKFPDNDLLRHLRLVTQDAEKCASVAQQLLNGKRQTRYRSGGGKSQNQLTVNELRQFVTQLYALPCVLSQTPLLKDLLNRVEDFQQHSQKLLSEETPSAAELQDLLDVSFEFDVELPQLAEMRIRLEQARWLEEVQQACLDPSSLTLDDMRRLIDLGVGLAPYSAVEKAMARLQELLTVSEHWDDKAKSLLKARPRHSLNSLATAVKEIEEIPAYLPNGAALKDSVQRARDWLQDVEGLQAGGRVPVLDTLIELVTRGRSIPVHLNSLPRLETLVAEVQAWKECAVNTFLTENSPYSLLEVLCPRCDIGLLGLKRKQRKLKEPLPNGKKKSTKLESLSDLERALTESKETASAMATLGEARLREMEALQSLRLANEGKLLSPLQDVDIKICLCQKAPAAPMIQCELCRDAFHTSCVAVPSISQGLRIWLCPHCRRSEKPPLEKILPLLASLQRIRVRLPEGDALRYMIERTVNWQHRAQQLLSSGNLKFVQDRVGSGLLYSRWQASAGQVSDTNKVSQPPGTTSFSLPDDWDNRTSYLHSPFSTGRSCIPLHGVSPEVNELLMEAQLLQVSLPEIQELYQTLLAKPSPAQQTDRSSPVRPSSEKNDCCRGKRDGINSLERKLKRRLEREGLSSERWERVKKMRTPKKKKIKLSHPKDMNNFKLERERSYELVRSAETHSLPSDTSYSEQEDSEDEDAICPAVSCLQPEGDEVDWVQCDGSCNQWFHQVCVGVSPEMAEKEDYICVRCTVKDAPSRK

As a reminder, the inhibition is the relative decrease from the control value, in per cent. `O=c1[nH]c(COc2ccc(Cc3ccccc3)cc2)nc2c(CNC[C@@H]3CCCNC3)nccc12` [Example 154, (R)-2-((4-benzylphenoxy)methyl)-8-(((piperidin-3-ylmethyl)amino)methyl)pyrido[3,4-d]pyrimidin-4(3H)-one]: the inhibition at 0.1 µM is over 50%. As for `N[C@H]1CC[C@H](NCc2nccc3c(=O)[nH]c(COc4ccc(Cc5ccccc5)cc4)nc23)CC1` [Example 155, 8-((((1r,4r)-4-aminocyclohexyl)amino)methyl)-2-((4-benzylphenoxy)methyl)pyrido[3,4-d]pyrimidin-4(3H)-one], the figure is 20 to 50%; as for `O=c1[nH]c(COc2ccc(Cc3ccccc3)cc2)nc2c(CNCCN3CCOCC3)nccc12` [Example 157, 2-((4-benzylphenoxy)methyl)-8-(((2-morpholinoethyl)amino)methyl)pyrido[3,4-d]pyrimidin-4(3H)-one], 20 to 50%; as for `O=c1[nH]c(COc2ccc(F)c(Cl)c2)nc2c(CNC[C@H]3CCNC3)nccc12` [Example 158, (S)-2-((3-chloro-4-fluorophenoxy)methyl)-8-(((pyrrolidin-3-ylmethyl)amino)methyl)pyrido[3,4-d]pyrimidin-4(3H)-one], over 50%. With `CN1CCC(CNCc2nccc3c(=O)[nH]c(COc4ccc(F)c(Cl)c4)nc23)C1` (centres unmarked) [Example 159, 2-((3-chloro-4-fluorophenoxy)methyl)-8-((((1-methylpyrrolidin-3-yl)methyl)amino)methyl)pyrido[3,4-d]pyrimidin-4(3H)-one] the figure was over 50%.

Take `CN1CCC(CNCc2nccc3c(=O)[nH]c(COc4ccc(F)c(Cl)c4)nc23)CC1` [Example 160, 2-((3-chloro-4-fluorophenoxy)methyl)-8-((((1-methylpiperidin-4-yl)methyl)amino)methyl)pyrido[3,4-d]pyrimidin-4(3H)-one]: the inhibition at 0.1 µM is over 50%. Turning to `O=c1[nH]c(COc2ccc(F)c(Cl)c2)nc2c(CNCC3CCOCC3)nccc12` [Example 161, 2-((3-chloro-4-fluorophenoxy)methyl)-8-((((tetrahydro-2H-pyran-4-yl)methyl)amino)methyl)pyrido[3,4-d]pyrimidin-4(3H)-one], the inhibition at 0.1 µM is under 20%. With `O=c1[nH]c(COc2ccc(F)c(Cl)c2)nc2c(CNCC3CCCOC3)nccc12` (centres unmarked) [Example 162, 2-((3-chloro-4-fluorophenoxy)methyl)-8-((((tetrahydro-2H-pyran-3-yl)methyl)amino)methyl)pyrido[3,4-d]pyrimidin-4(3H)-one] the figure was under 20%; with `O=c1[nH]c(COc2ccc(F)c(Cl)c2)nc2c(CNCC3CCOC3)nccc12` (centres unmarked) [Example 163, 2-((3-chloro-4-fluorophenoxy)methyl)-8-((((tetrahydrofuran-3-yl)methyl)amino)methyl)pyrido[3,4-d]pyrimidin-4(3H)-one], under 20%; with `O=c1[nH]c(COc2ccc(F)c(Cl)c2)nc2c(CNCCN3CCOCC3)nccc12` [Example 164, 2-((3-chloro-4-fluorophenoxy)methyl)-8-(((2-morpholinoethyl)amino)methyl)pyrido[3,4-d]pyrimidin-4(3H)-one], 20 to 50%. As for `O=c1[nH]c(COc2ccc(F)c(Cl)c2)nc2c(CNCCCn3ccnc3)nccc12` [Example 165, 8-(((3-(1H-imidazol-1-yl)propyl)amino)methyl)-2-((3-chloro-4-fluorophenoxy)methyl)pyrido[3,4-d]pyrimidin-4(3H)-one], the figure is over 50%; as for `Cc1cnc(CNCc2nccc3c(=O)[nH]c(COc4ccc(F)c(Cl)c4)nc23)cn1` [Example 166, 2-((3-chloro-4-fluorophenoxy)methyl)-8-((((5-methylpyrazin-2-yl)methyl)amino)methyl)pyrido[3,4-d]pyrimidin-4(3H)-one], 20 to 50%. Consider `CC(C)N1CCC(CNCc2nccc3c(=O)[nH]c(COc4ccc(F)c(Cl)c4)nc23)CC1` [Example 168, 2-((3-chloro-4-fluorophenoxy)methyl)-8-((((1-isopropylpiperidin-4-yl)methyl)amino)methyl)pyrido[3,4-d]pyrimidin-4(3H)-one], for which the inhibition at 0.1 µM was over 50%.

`O=c1[nH]c(COc2ccc(F)c(Cl)c2)nc2c(CNCC3CCN(C4CCCC4)CC3)nccc12` [Example 169, 2-((3-chloro-4-fluorophenoxy)methyl)-8-((((1-cyclopentylpiperidin-4-yl)methyl)amino)methyl)pyrido[3,4-d]pyrimidin-4(3H)-one]: the inhibition at 0.1 µM was over 50%.

Consider `O=c1[nH]c(COc2ccc(F)c(Cl)c2)nc2c(CNCc3ccccn3)nccc12` [Example 170, 2-((3-chloro-4-fluorophenoxy)methyl)-8-(((pyridin-2-ylmethyl)amino)methyl)pyrido[3,4-d]pyrimidin-4(3H)-one], for which the inhibition at 0.1 µM fell in the range of 20 to 50%. With `O=c1[nH]c(COc2ccc(F)c(Cl)c2)nc2c(CNCc3ccco3)nccc12` [Example 171, 2-((3-chloro-4-fluorophenoxy)methyl)-8-(((furan-2-ylmethyl)amino)methyl)pyrido[3,4-d]pyrimidin-4(3H)-one] the figure was 20 to 50%. With `O=c1[nH]c(COc2ccc(F)c(Cl)c2)nc2c(CNCc3cccnc3)nccc12` [Example 172, 2-((3-chloro-4-fluorophenoxy)methyl)-8-(((pyridin-3-ylmethyl)amino)methyl)pyrido[3,4-d]pyrimidin-4(3H)-one] the figure was over 50%; with `O=c1[nH]c(COc2ccc(F)c(Cl)c2)nc2c(CNCc3ccncc3)nccc12` [Example 173, 2-((3-chloro-4-fluorophenoxy)methyl)-8-(((pyridin-4-ylmethyl)amino)methyl)pyrido[3,4-d]pyrimidin-4(3H)-one], 20 to 50%. With `CN(C)C(=O)c1ccc(CNCc2nccc3c(=O)[nH]c(COc4ccc(F)c(Cl)c4)nc23)o1` [Example 174, 5-((((2-((3-chloro-4-fluorophenoxy)methyl)-4-oxo-3,4-dihydropyrido[3,4-d]pyrimidin-8-yl)methyl)amino)methyl)-N,N-dimethylfuran-2-carboxamide] the figure was 20 to 50%; with `Cc1nccn1CCNCc1nccc2c(=O)[nH]c(COc3ccc(F)c(Cl)c3)nc12` [Example 175, 2-((3-chloro-4-fluorophenoxy)methyl)-8-(((2-(2-methyl-1H-imidazol-1-yl)ethyl)amino)methyl)pyrido[3,4-d]pyrimidin-4(3H)-one], 20 to 50%; with `O=c1[nH]c(COc2ccc(F)c(Cl)c2)nc2c(CNCCc3cccs3)nccc12` [Example 176, 2-((3-chloro-4-fluorophenoxy)methyl)-8-(((2-(thiophen-2-yl)ethyl)amino)methyl)pyrido[3,4-d]pyrimidin-4(3H)-one], 20 to 50%. As to `Cc1cc(CNCc2nccc3c(=O)[nH]c(COc4ccc(F)c(Cl)c4)nc23)on1` [Example 177, 2-((3-chloro-4-fluorophenoxy)methyl)-8-((((3-methylisoxazol-5-yl)methyl)amino)methyl)pyrido[3,4-d]pyrimidin-4(3H)-one], the inhibition at 0.1 µM was in the range of 20 to 50%. As for `CN1CCOC(CNCc2nccc3c(=O)[nH]c(COc4ccc(F)c(Cl)c4)nc23)C1` (centres unmarked) [Example 178, 2-((3-chloro-4-fluorophenoxy)methyl)-8-((((4-methylmorpholin-2-yl)methyl)amino)methyl)pyrido[3,4-d]pyrimidin-4(3H)-one], the figure is 20 to 50%.
